Source: PMC9611449, “Hydroxy-3-Phenylcoumarins as Multitarget Compounds for Skin Aging Diseases: Synthesis, Molecular Docking and Tyrosinase, Elastase, Collagenase and Hyaluronidase Inhibition, and Sun Protection Factor” (Molecules, 2022)
“Also recorded” adds a separate entry of the source. Like-named read-outs stand apart in the source and are kept apart here.

Experiments:
[1] = biological target: porcine pancreatic elastase (Sus scrofa, UniProt P00772); assay: Elastase inhibition assay (SANA substrate); type: biochemical; conditions: for inhibition at 50 µM: read-out: Enzyme inhibition Elastase; for IC50: mean ± SD of three independent experiments
porcine pancreatic elastase, sequence (P00772 27-266): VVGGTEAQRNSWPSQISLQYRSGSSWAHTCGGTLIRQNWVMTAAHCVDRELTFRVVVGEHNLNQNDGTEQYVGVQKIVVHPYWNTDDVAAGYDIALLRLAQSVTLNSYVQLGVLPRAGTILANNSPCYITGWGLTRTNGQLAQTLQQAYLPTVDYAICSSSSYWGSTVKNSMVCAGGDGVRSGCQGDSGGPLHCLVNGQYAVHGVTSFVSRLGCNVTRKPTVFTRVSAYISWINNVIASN
Description: (§1) Since the compounds were dissolved in DMSO, in the assays carried out without compounds, DMSO was added to the reaction mixture as blank control. […] Data from activity experiments were recorded using an Ultrospec 2100 spectrophotometer (Biochrom Ltd., Cambridge, UK).
The inhibition of elastase was determined by measuring the production of p-nitroaniline during the reaction of the enzyme with the N-succ-(Ala)3-nitroanilide (SANA) substrate. The assay was carried out in Tris-HCl buffer (0.1 M, pH 8.0) containing porcine pancreatic elastase (3.3 µg/mL). The reaction mixture was incubated in the presence or in the absence of the test compounds for 20 minutes and, once the substrate (1.6 mM) was added, the enzyme activity was monitored at 410 nm.

[2] = system: Collagenase from Clostridium histolyticum; assay: Collagenase inhibition assay (FALGPA substrate); type: biochemical; conditions: for Enzyme inhibition Collagenase: 100 μM; for IC50: mean ± SD of three independent experiments
Description: as §1, with “Results from all the inhibition tests described below were reported as a percentage of the blank control. Since” for “Since”
Collagenase from Clostridium histolyticum (1 U/mL) was prepared in 0.05 M Tricine buffer (pH 7.5), with 0.4 M NaCl and 0.01 M CaCl2, and incubated with different concentrations of test samples for 15 minutes. After adding the N-(3-[2-Furyl]-acryloyl)-Leu-Gly-Pro-Ala (FALGPA) substrate, prepared in the same buffer solution reaching a final concentration of 0.8 mM, the absorbance was registered at 340 nm. Epigallocatechin gallate was used as a positive control.

[3] = system: mushroom tyrosinase; assay: Tyrosinase inhibition assay (L-DOPA substrate); type: biochemical; conditions: for Enzyme inhibition Tyrosinase: 50 μM
Description: as §1
The inhibition of tyrosinase was monitored by using DOPA as substrate. The reaction solution contained phosphate buffer (25 mM, pH 6.8) and mushroom tyrosinase (100 U/mL), with or without test samples.

[4] = system: Human skin keratinocyte cell line (HaCaT); assay: HaCaT cell viability (MTT assay); type: cell-based; conditions: 10–200 μM, 24 h
Description: Human skin keratinocyte cell line (HaCaT; CLS–Cell Lines Service, Eppelheim, Germany) was cultured in Dulbecco’s Modified Eagle’s Medium (DMEM) with 10% fetal bovine serum (FBS; Gibco, NY, USA) and 1% penicillin/streptomycin at 37 °C in a humidified atmosphere with 5% CO2. Cell viability was determined by the MTT (3-(4,5-dimethylthiazol-2-yl)-2,5-diphenyltetrazolium bromide) colorimetric assay, as previously reported. Briefly, HaCaT cells were seeded in 96-well plates and incubated with compounds at different concentrations (0–200 µM). After 24 h, cells were labelled with MTT solution for 3 h at 37 °C. DMSO was added to the formed violet formazan precipitates and the absorbance of each well was measured at 560 nm.

[5] = biological target: mushroom tyrosinase; set-up: method as in doi:10.1039/C5RA14465E; conditions: data previously reported; cited from earlier work
[6] = biological target: T1, hyaluronidase (Bos taurus, UniProt Q2YDK3); assay: Hyaluronidase inhibition assay; type: biochemical; conditions: ratio of IC50 values
T1 sequence (Q2YDK3 36-553): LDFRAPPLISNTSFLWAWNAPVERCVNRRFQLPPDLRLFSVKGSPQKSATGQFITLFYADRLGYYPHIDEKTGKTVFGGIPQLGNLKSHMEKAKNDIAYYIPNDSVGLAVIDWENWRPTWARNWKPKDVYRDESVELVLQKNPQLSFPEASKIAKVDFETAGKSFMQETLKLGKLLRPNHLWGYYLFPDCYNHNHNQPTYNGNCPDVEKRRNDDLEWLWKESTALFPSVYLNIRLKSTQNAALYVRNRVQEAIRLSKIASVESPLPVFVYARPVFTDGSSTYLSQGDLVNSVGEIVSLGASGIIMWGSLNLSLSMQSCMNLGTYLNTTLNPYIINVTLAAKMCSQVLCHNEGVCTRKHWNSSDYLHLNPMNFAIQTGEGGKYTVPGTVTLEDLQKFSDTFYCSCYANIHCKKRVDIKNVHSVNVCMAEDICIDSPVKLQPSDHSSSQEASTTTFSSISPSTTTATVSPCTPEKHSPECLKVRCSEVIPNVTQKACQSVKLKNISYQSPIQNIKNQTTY
Description: as §1
Inhibition of hyaluronidase was determined following the method reported by Chompoo and co-authors. A 5 μL test sample was incubated with 100 μL of enzyme solution (1.5 U) containing 20 mM sodium phosphate buffer (pH 7.0) with 77 mM NaCl and bovine serum albumin (BSA) 0.01%. […] After 10 minutes at room temperature, the absorbance was monitored at 600 nm.

SMILES	inhibition at 50 µM [1]	IC50 [1]	Enzyme inhibition Collagenase [2]	IC50 [2]	Enzyme inhibition Tyrosinase [3]	times more active than the standard inhibitor kojic acid (tyrosinase) ([3]; ratio of IC50 values)	Cytotoxicity on HaCaT cell viability [4]	melting point	IC50 [5]	times more active than the reference compound oleanolic acid (hyaluronidase) [6]	IC50 ([3]; mean ± SD of three independent experiments)
O=c1oc2cc(O)cc(O)c2cc1-c1ccc(Br)cc1 [Compound 1, 3-(4′-Bromophenyl)-5,7-dihydroxycoumarin]	15.6%	> 50 µM	42.6%	123 ± 2.2 µM	98.3%	17 times	non-cytotoxic; also recorded: no toxicity	273 to 275 °C	1050 ± 60 nM	–	–
O=c1oc2cc(O)c(O)cc2cc1-c1ccc(Br)cc1 [Compound 4, 3-(4′-Bromophenyl)-6,7-dihydroxycoumarin]	30.5%	> 50 µM	N.I.	> 150 µM	58.3%	–	–	–	–	1.9 times	39.9 ± 0.7 µM
